In ChEMBL document CHEMBL1201862, “PubChem BioAssay data set” (2004):
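Tested at 5 concentrations; 48 h exposure; 96-well plates; endpoints linearly interpolated, else capped at highest concentration. GI50 marks 50% less growth.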 Calls of active or inactive are those of the source. Rule as the data show it: active = GI50 up to about 1.1 µM and inactive = higher.

Experiments:
Experiment in all cases: inhibition of tumour cell growth, NCI panel, 48 h
786-0 = test system: 786-0
A498 = test system: A498
A549 = test system: A549
ACHN = test system: ACHN
BT-549 = test system: BT-549
CAKI-1 = test system: CAKI-1
CCRF-CEM = test system: CCRF-CEM
COLO 205 = test system: COLO 205
DU-145 = test system: DU-145
HCC 2998 = test system: HCC 2998
HCT-116 = test system: HCT-116
HCT-15 = test system: HCT-15
HL-60 = test system: HL-60
HOP-92 = test system: HOP-92
HT-29 = test system: HT-29
IGROV-1 = test system: IGROV-1
K562 = test system: K562
KM12 = test system: KM12
M14 = test system: M14
MDA-MB-231 = test system: MDA-MB-231
MDA-MB-435 = test system: MDA-MB-435
MDA-N = test system: MDA-N
MOLT-4 = test system: MOLT-4
Malme-3M = test system: Malme-3M
NCI-H226 = test system: NCI-H226
NCI-H23 = test system: NCI-H23
NCI-H460 = test system: NCI-H460
NCI-H522 = test system: NCI-H522
NCI/ADR-RES = test system: NCI/ADR-RES
OVCAR-3 = test system: OVCAR-3
OVCAR-4 = test system: OVCAR-4
OVCAR-5 = test system: OVCAR-5
OVCAR-8 = test system: OVCAR-8
PC-3 = test system: PC-3
RPMI-8226 = test system: RPMI-8226
RXF 393 = test system: RXF 393
SF-268 = test system: SF-268
SF-295 = test system: SF-295
SF-539 = test system: SF-539
SK-MEL-28 = test system: SK-MEL-28
SK-MEL-2 = test system: SK-MEL-2
SK-MEL-5 = test system: SK-MEL-5
SN12C = test system: SN12C
SNB-19 = test system: SNB-19
SNB-75 = test system: SNB-75
SR = test system: SR
SW-620 = test system: SW-620
T47D = test system: T47D
TK-10 = test system: TK-10
U-251 = test system: U-251
UACC-257 = test system: UACC-257
UACC-62 = test system: UACC-62
UO-31 = test system: UO-31
EKVX = test system: EKVX
HOP-62 = test system: HOP-62
Hs-578T = test system: Hs-578T
LOX IMVI = test system: LOX IMVI
MCF7 = test system: MCF7
SK-OV-3 = test system: SK-OV-3

Measured: GI50

COP1(=S)OCC2CCC[C@@H]2O1 (stereo not given in full)
> 100 µM: HCT-15
inactive: 786-0 > 100 µM | A498 > 100 µM | A549 > 100 µM | ACHN > 100 µM | BT-549 > 100 µM | CAKI-1 > 100 µM | CCRF-CEM > 100 µM | COLO 205 > 100 µM | DU-145 > 100 µM | HCC 2998 > 100 µM | HCT-116 > 100 µM | HL-60 > 100 µM | HOP-92 > 100 µM | HT-29 > 100 µM | IGROV-1 > 100 µM | K562 > 100 µM | KM12 > 100 µM | M14 > 100 µM | MDA-MB-231 > 100 µM | MDA-MB-435 > 100 µM | MDA-N > 100 µM | MOLT-4 > 100 µM | Malme-3M > 100 µM | NCI-H226 > 100 µM | NCI-H23 > 100 µM | NCI-H460 > 100 µM | NCI-H522 > 100 µM | NCI/ADR-RES > 100 µM | OVCAR-3 > 100 µM | OVCAR-4 > 100 µM | OVCAR-5 > 100 µM | OVCAR-8 > 100 µM | PC-3 > 100 µM | RPMI-8226 > 100 µM | RXF 393 > 100 µM | SF-268 > 100 µM | SF-295 > 100 µM | SF-539 > 100 µM | SK-MEL-28 > 100 µM | SK-MEL-2 > 100 µM | SK-MEL-5 > 100 µM | SN12C > 100 µM | SNB-19 > 100 µM | SNB-75 > 100 µM | SR > 100 µM | SW-620 > 100 µM | T47D > 100 µM | TK-10 > 100 µM | U-251 > 100 µM | UACC-257 > 100 µM | UACC-62 > 100 µM | UO-31 > 100 µM

COc1cc(Nc2nc3ccccc3n3cccc23)cc(OC)c1OC
active: T47D 0.276 µM
> 100 µM: HCT-15
inactive: 786-0 94.8 µM | A498 > 100 µM | A549 > 100 µM | ACHN > 100 µM | BT-549 68.9 µM | CAKI-1 > 100 µM | CCRF-CEM > 100 µM | COLO 205 > 100 µM | DU-145 > 100 µM | EKVX > 100 µM | HCC 2998 > 100 µM | HCT-116 > 100 µM | HL-60 47.8 µM | HOP-62 19.1 µM | HOP-92 44.2 µM | HT-29 > 100 µM | Hs-578T 64.4 µM | IGROV-1 54.7 µM | K562 > 100 µM | KM12 > 100 µM | LOX IMVI > 100 µM | M14 > 100 µM | MCF7 > 100 µM | MDA-MB-231 27.1 µM | MDA-MB-435 > 100 µM | MOLT-4 > 100 µM | Malme-3M > 100 µM | NCI-H23 73.8 µM | NCI-H460 > 100 µM | NCI-H522 > 100 µM | NCI/ADR-RES > 100 µM | OVCAR-3 > 100 µM | OVCAR-5 > 100 µM | OVCAR-8 20.3 µM | PC-3 > 100 µM | RPMI-8226 > 100 µM | RXF 393 17.5 µM | SF-268 28.5 µM | SF-295 63.5 µM | SF-539 > 100 µM | SK-MEL-28 > 100 µM | SK-MEL-2 52.5 µM | SK-MEL-5 > 100 µM | SK-OV-3 37.3 µM | SNB-19 98.2 µM | SR > 100 µM | SW-620 > 100 µM | TK-10 36.3 µM | U-251 47.8 µM | UACC-257 > 100 µM | UACC-62 > 100 µM | UO-31 > 100 µM

CCOC(=O)c1cccn1S(=O)(=O)c1cc(Cl)ccc1NC(=O)CC
inactive: 786-0 57 µM | A498 > 100 µM | A549 54.1 µM | ACHN > 100 µM | BT-549 52.6 µM | CAKI-1 > 100 µM | CCRF-CEM > 100 µM | COLO 205 16.3 µM | DU-145 > 100 µM | EKVX 61.7 µM | HCT-116 40 µM | HL-60 > 100 µM | HOP-62 > 100 µM | HOP-92 > 100 µM | Hs-578T 28.9 µM | IGROV-1 > 100 µM | K562 51.8 µM | KM12 44.9 µM | LOX IMVI 70.5 µM | MCF7 > 100 µM | MDA-MB-231 39.2 µM | MDA-MB-435 33.3 µM | MOLT-4 47.8 µM | NCI-H460 50.1 µM | NCI-H522 18.5 µM | OVCAR-3 > 100 µM | OVCAR-4 60.1 µM | OVCAR-5 > 100 µM | PC-3 59.2 µM | RPMI-8226 75.9 µM | RXF 393 91 µM | SF-295 35.2 µM | SF-539 > 100 µM | SK-MEL-28 > 100 µM | SK-MEL-2 53.5 µM | SK-MEL-5 20.2 µM | SK-OV-3 43.3 µM | SN12C > 100 µM | SNB-19 > 100 µM | SNB-75 33.3 µM | SR > 10 µM | SW-620 > 100 µM | T47D 44.9 µM | TK-10 > 100 µM | U-251 > 100 µM | UACC-257 > 100 µM | UACC-62 58.9 µM | UO-31 15.4 µM
44 µM: HCT-15

COc1cc(-c2c3c(cc4c2OCO4)[C@@H](Nc2ccc(-c4ccc(-c5ccc(N[C@@H]6c7cc8c(cc7C(c7cc(OC)c(O)c(OC)c7)[C@H]7C(=O)OC[C@H]67)OCO8)cc5)cc4)cc2)[C@H]2COC(=O)[C@@H]2C3)cc(OC)c1O (stereo not given in full)
1.73 µM: HCT-15
inactive: 786-0 1.76 µM | A498 4.62 µM | A549 3.22 µM | ACHN 2.24 µM | BT-549 2.84 µM | CAKI-1 2.65 µM | CCRF-CEM 3.13 µM | COLO 205 1.7 µM | DU-145 1.93 µM | EKVX 4.51 µM | HCT-116 1.73 µM | HL-60 2.4 µM | HOP-62 2.58 µM | HOP-92 4.55 µM | HT-29 2.31 µM | Hs-578T 2.6 µM | KM12 1.85 µM | LOX IMVI 4.13 µM | M14 1.95 µM | MCF7 2.82 µM | MDA-MB-231 2.19 µM | MDA-MB-435 1.69 µM | MOLT-4 3.1 µM | Malme-3M 1.87 µM | NCI-H226 2.09 µM | NCI-H23 5.13 µM | NCI-H460 3.05 µM | NCI/ADR-RES 1.85 µM | OVCAR-3 2.36 µM | OVCAR-5 4.39 µM | OVCAR-8 1.61 µM | PC-3 2.04 µM | RPMI-8226 2.52 µM | SF-268 2.33 µM | SF-295 1.77 µM | SK-MEL-28 1.85 µM | SK-MEL-5 2.28 µM | SK-OV-3 2.65 µM | SN12C 5.21 µM | SNB-19 2.96 µM | SR 2.2 µM | SW-620 2.7 µM | T47D 4.93 µM | TK-10 2.38 µM | U-251 3.09 µM | UACC-257 10.6 µM | UO-31 3.13 µM
active: IGROV-1 1.1 µM | SF-539 < 0.01 µM | SNB-75 < 0.01 µM

CO[C@H]1[C@@H](O)[C@@H](C)O[C@@H](O[C@H]2CC[C@@]3(C)[C@H](CC[C@@H]4[C@@H]3CC[C@]3(C)[C@@H](C5=CC(=O)OC5)[C@@H](OC(C)=O)C[C@]43O)C2)[C@@H]1O [NERITALOSIDE]
0.0973 µM: HCT-15
active: 786-0 0.0176 µM | A498 0.281 µM | A549 0.0104 µM | ACHN 0.0188 µM | BT-549 0.0331 µM | CAKI-1 0.0208 µM | CCRF-CEM 0.029 µM | COLO 205 0.156 µM | DU-145 0.0176 µM | EKVX 0.0156 µM | HCC 2998 0.23 µM | HCT-116 0.0219 µM | HL-60 0.0566 µM | HOP-62 0.0253 µM | HOP-92 0.149 µM | HT-29 0.0461 µM | Hs-578T 0.0202 µM | IGROV-1 0.0371 µM | K562 0.141 µM | KM12 0.157 µM | LOX IMVI 0.0708 µM | M14 0.0904 µM | MCF7 0.16 µM | MDA-MB-231 0.198 µM | MDA-MB-435 0.124 µM | MOLT-4 0.0211 µM | Malme-3M 0.016 µM | NCI-H226 0.173 µM | NCI-H23 0.027 µM | NCI-H460 0.0165 µM | NCI-H522 0.0142 µM | NCI/ADR-RES 0.0486 µM | OVCAR-3 0.0229 µM | OVCAR-4 0.0601 µM | OVCAR-5 0.0914 µM | OVCAR-8 0.0723 µM | PC-3 0.0256 µM | RPMI-8226 0.17 µM | RXF 393 0.0164 µM | SF-268 0.024 µM | SF-295 0.0461 µM | SF-539 0.0248 µM | SK-MEL-28 0.291 µM | SK-MEL-2 0.129 µM | SK-MEL-5 0.0405 µM | SK-OV-3 0.0807 µM | SN12C 0.0152 µM | SNB-19 0.144 µM | SNB-75 0.112 µM | SR 0.0533 µM | SW-620 0.111 µM | T47D 0.162 µM | TK-10 0.0164 µM | U-251 0.0798 µM | UACC-257 0.1 µM | UACC-62 0.1 µM | UO-31 0.0177 µM
